# Source: PubChem BioAssay AID256 (DTP/NCI, 2004)
# Where “and” joins values, the source holds several entries; their conditions need not be identical. Equal entries are not always repeated. Toxic doses and inconclusive results are not listed.
# System: CD2F1 mice, L1210 leukemia ip, survival T/C
# Experiment: NCI In Vivo Anticancer Drug Screen. Data for tumor model L1210 Leukemia (intraperitoneal) in CD2F1 (CDF1) mice
# Conditions: higher = longer survival
# Procedure, shortened: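 Ratio T/C, where T is the treated-group value and C the vehicle-dosed control value, from mice implanted with a transplantable tumor.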
# [1] = endpoint: mean survival time, dose: 100.0 mg/kg/injection, schedule: Q04DX002 (ip), vehicle: saline with Tween-80
# [2] = endpoint: mean survival time, dose: 200.0 mg/kg/injection, schedule: Q04DX002 (ip), vehicle: saline with Tween-80
# [3] = endpoint: mean survival time, dose: 400.0 mg/kg/injection, schedule: Q04DX002 (ip), vehicle: saline with Tween-80
# [4] = endpoint: mean survival time, dose: 100.0 mg/kg/injection, schedule: Q04DX003 (ip), vehicle: saline with Tween-80
# [5] = endpoint: mean survival time, dose: 200.0 mg/kg/injection, schedule: Q04DX003 (ip), vehicle: saline with Tween-80
# [6] = endpoint: mean survival time, dose: 400.0 mg/kg/injection, schedule: Q04DX003 (ip), vehicle: saline with Tween-80
# [7] = endpoint: mean survival time, dose: 50.0 mg/kg/injection, schedule: Q01DX009 (ip), vehicle: saline with Tween-80
# [8] = endpoint: mean survival time, dose: 100.0 mg/kg/injection, schedule: Q01DX001 (ip), vehicle: saline
# [9] = endpoint: mean survival time, dose: 200.0 mg/kg/injection, schedule: Q01DX001 (ip), vehicle: saline
# [10] = endpoint: mean survival time, dose: 400.0 mg/kg/injection, schedule: Q01DX001 (ip), vehicle: saline
compound,measurement,setting,value
COCCOCCOCCOCCOCCOCCOCCOCCOCCOCCOC(=O)N(CC[PH+](c1ccccc1)c1ccccc1)CC[PH+](c1ccccc1)c1ccccc1.[Cl][Pt][Cl],T/C,"endpoint: median survival time, dose: 3.13 mg/kg/injection, schedule: Q04DX003 (ip), vehicle: distilled water + Tween-80",101 % of control
same,T/C,"endpoint: median survival time, dose: 6.25 mg/kg/injection, schedule: Q04DX003 (ip), vehicle: distilled water + Tween-80",100 % of control
same,T/C,"endpoint: median survival time, dose: 12.5 mg/kg/injection, schedule: Q04DX003 (ip), vehicle: distilled water + Tween-80",104 % of control
same,T/C,"endpoint: median survival time, dose: 25.0 mg/kg/injection, schedule: Q04DX003 (ip), vehicle: distilled water + Tween-80",96 % of control
same,T/C,"endpoint: median survival time, dose: 50.0 mg/kg/injection, schedule: Q04DX003 (ip), vehicle: distilled water + Tween-80",115 % of control
same,T/C,"endpoint: median survival time, dose: 100.0 mg/kg/injection, schedule: Q04DX003 (ip), vehicle: distilled water + Tween-80",100 % of control
same,T/C,"endpoint: median survival time, dose: 200.0 mg/kg/injection, schedule: Q04DX003 (ip), vehicle: distilled water + Tween-80",98 % of control
COC(=O)c1cccn1C(=O)c1ccccc1N,T/C,[1],96 % of control
same,T/C,[2],93 % of control
same,T/C,[3],100 % of control
O=CC1C2C=CCC12 (centres undefined),T/C,"endpoint: mean survival time, dose: 100.0 mg/kg/injection, schedule: Q01DX009 (ip), vehicle: saline sonified",102 % of control
same,T/C,[4],95 % of control
same,T/C,"endpoint: mean survival time, dose: 200.0 mg/kg/injection, schedule: Q01DX009 (ip), vehicle: saline sonified",102 % of control
same,T/C,[5],95 % of control
same,T/C,"endpoint: mean survival time, dose: 400.0 mg/kg/injection, schedule: Q01DX009 (ip), vehicle: saline sonified",91 % of control
same,T/C,[6],95 % of control
O=C1c2ccccc2C(=O)C1(Cl)C(Cl)c1ccc([N+](=O)[O-])cc1 (centres undefined),T/C,"endpoint: mean survival time, dose: 100.0 mg/kg/injection, schedule: Q04DX003 (ip), vehicle: Klucel (hydroxypropylcellulose) (HPC)",100 % of control
same,T/C,"endpoint: mean survival time, dose: 200.0 mg/kg/injection, schedule: Q04DX003 (ip), vehicle: Klucel (hydroxypropylcellulose) (HPC)",106 % of control
same,T/C,"endpoint: mean survival time, dose: 400.0 mg/kg/injection, schedule: Q04DX003 (ip), vehicle: Klucel (hydroxypropylcellulose) (HPC)",106 % of control
CN(C)S(=O)(=O)C#Cc1ccccc1,T/C,[4],104 % of control
same,T/C,[5],97 % of control
same,T/C,[6],102 % of control
Nc1n[nH]c(=O)[nH]1,T/C,"endpoint: mean survival time, dose: 31.3 mg/kg/injection, schedule: Q03HX024 (ip), vehicle: saline",106 % of control
same,T/C,"endpoint: mean survival time, dose: 62.5 mg/kg/injection, schedule: Q03HX024 (ip), vehicle: saline",106 % of control
same,T/C,"endpoint: mean survival time, dose: 125.0 mg/kg/injection, schedule: Q03HX024 (ip), vehicle: saline",109 % of control
same,T/C,"endpoint: mean survival time, dose: 250.0 mg/kg/injection, schedule: Q03HX024 (ip), vehicle: saline",161 % of control
C=C(Br)CNC(=O)OCCCC,T/C,[7],88 % of control
CCCCCCCCCCCCCCCCCC[N+]1(C)CCC[N+](C)(CCCCCCCCCCCCCCCCCC)CC1 (centres undefined),T/C,[1],98 % of control and 100 % of control
same,T/C,[4],86 % of control and 108 % of control
same,T/C,[2],92 % of control and 100 % of control
same,T/C,[5],90 % of control and 104 % of control
same,T/C,[3],87 % of control and 92 % of control
same,T/C,[6],88 % of control
CCCC1C(CC)C=NN1C (centres undefined),T/C,[8],102 % of control
same,T/C,[9],101 % of control
same,T/C,[10],98 % of control
CC(C)(C)OC(=O)N/N=C1\CC2CCC1C2 (centres undefined),T/C,"endpoint: mean survival time, dose: 25.0 mg/kg/injection, schedule: Q01DX009 (ip), vehicle: saline with Tween-80",107 % of control
COc1cc(/C=C2/CCCCC2=O)ccc1O,T/C,"endpoint: mean survival time, dose: 100.0 mg/kg/injection, schedule: Q01DX009 (ip), vehicle: other",104 % of control
same,T/C,"endpoint: mean survival time, dose: 200.0 mg/kg/injection, schedule: Q01DX009 (ip), vehicle: other",98 % of control
same,T/C,"endpoint: mean survival time, dose: 400.0 mg/kg/injection, schedule: Q01DX009 (ip), vehicle: other",98 % of control
CCCCC(O)(c1ccccc1)C1CN(C(C)(C)C)C1c1ccccc1 (centres undefined),T/C,"endpoint: mean survival time, dose: 25.0 mg/kg/injection, schedule: Q01DX001 (ip), vehicle: saline with Tween-80",95 % of control
same,T/C,"endpoint: mean survival time, dose: 50.0 mg/kg/injection, schedule: Q01DX001 (ip), vehicle: saline with Tween-80",91 % of control
same,T/C,"endpoint: mean survival time, dose: 100.0 mg/kg/injection, schedule: Q01DX001 (ip), vehicle: saline with Tween-80",86 % of control
CCOC(=O)Cn1c(=O)cc(C)c2ccccc21,T/C,[4],100 % of control
same,T/C,[5],101 % of control
same,T/C,[6],101 % of control
O=C(O)c1cc2ccccc2oc1=O,T/C,"endpoint: mean survival time, dose: 2.5 mg/kg/injection, schedule: Q01DX009 (ip), vehicle: Klucel (hydroxypropylcellulose) (HPC)",103 % of control
same,T/C,"endpoint: mean survival time, dose: 5.0 mg/kg/injection, schedule: Q01DX009 (ip), vehicle: Klucel (hydroxypropylcellulose) (HPC)",108 % of control
same,T/C,"endpoint: mean survival time, dose: 10.0 mg/kg/injection, schedule: Q01DX009 (ip), vehicle: Klucel (hydroxypropylcellulose) (HPC)",108 % of control
same,T/C,"endpoint: mean survival time, dose: 25.0 mg/kg/injection, schedule: Q04DX003 (ip), vehicle: saline with Tween-80",104 % of control
same,T/C,"endpoint: mean survival time, dose: 50.0 mg/kg/injection, schedule: Q04DX003 (ip), vehicle: saline with Tween-80",112 % of control
CC1(C)OCC(C2OC3OC(C)(C)OC3C2O)O1 (centres undefined),T/C,[8],105 % of control
same,T/C,[4],100 % of control
same,T/C,"endpoint: mean survival time, dose: 100.0 mg/kg/injection, schedule: Q04DX003 (ip), vehicle: saline",97 % of control
same,T/C,[9],103 % of control
same,T/C,[5],95 % of control
same,T/C,"endpoint: mean survival time, dose: 200.0 mg/kg/injection, schedule: Q04DX003 (ip), vehicle: saline",96 % of control
same,T/C,[10],103 % of control
same,T/C,[6],103 % of control
same,T/C,"endpoint: mean survival time, dose: 400.0 mg/kg/injection, schedule: Q04DX003 (ip), vehicle: saline",100 % of control
CC(C)[CH2][Sn](=[O])[OH],T/C,[7],115 % of control
same,T/C,"endpoint: mean survival time, dose: 100.0 mg/kg/injection, schedule: Q01DX009 (ip), vehicle: saline with Tween-80",103 % of control
COC(=O)C1(C)CCCC2(C)C1CCC13OCC(CC21)C(O)(C(C)C)C3O (centres undefined),T/C,[4],95 % of control
same,T/C,[5],97 % of control
same,T/C,[6],103 % of control
CCCCCCCCCCCCCCCCCCOCC(CO)OC (centres undefined),T/C,"endpoint: median survival time, dose: 25.0 mg/kg/injection, schedule: Q01DX009 (ip), vehicle: saline with Tween-80",104 % of control
same,T/C,"endpoint: median survival time, dose: 50.0 mg/kg/injection, schedule: Q01DX009 (ip), vehicle: saline with Tween-80",101 % of control
same,T/C,"endpoint: median survival time, dose: 100.0 mg/kg/injection, schedule: Q01DX009 (ip), vehicle: saline with Tween-80",103 % of control
same,T/C,"endpoint: median survival time, dose: 200.0 mg/kg/injection, schedule: Q01DX009 (ip), vehicle: saline with Tween-80",102 % of control
C1C2CC3CC3CC12 (centres undefined),T/C,[4],93 % of control
Cc1ccc(S(=O)(=O)OCCCCCOS(=O)(=O)c2ccc(C)cc2)cc1 (tested in a mixture with another compound),T/C,[1],102 % of control
same,T/C,[2],94 % of control
same,T/C,[3],94 % of control
CCCCC(Sc1n[nH]c(=O)[nH]c1=O)C(=O)OCC (centres undefined),T/C,"endpoint: mean survival time, dose: 12.5 mg/kg/injection, schedule: Q01DX005 (ip), vehicle: distilled water + Tween-80",96 % of control
same,T/C,"endpoint: mean survival time, dose: 25.0 mg/kg/injection, schedule: Q01DX005 (ip), vehicle: distilled water + Tween-80",100 % of control
same,T/C,"endpoint: mean survival time, dose: 50.0 mg/kg/injection, schedule: Q01DX005 (ip), vehicle: distilled water + Tween-80",96 % of control
same,T/C,"endpoint: mean survival time, dose: 100.0 mg/kg/injection, schedule: Q01DX005 (ip), vehicle: distilled water + Tween-80",103 % of control
same,T/C,"endpoint: mean survival time, dose: 200.0 mg/kg/injection, schedule: Q01DX005 (ip), vehicle: distilled water + Tween-80",97 % of control
Nc1ncnc2c1c1c(N)[nH]c(=O)nc1n2C1OC(CO)C(O)C1O (centres undefined),T/C,"endpoint: mean survival time, dose: 12.5 mg/kg/injection, schedule: Q01DX005 (ip), vehicle: water",106 % of control
same,T/C,"endpoint: mean survival time, dose: 25.0 mg/kg/injection, schedule: Q01DX005 (ip), vehicle: water",104 % of control
same,T/C,"endpoint: mean survival time, dose: 50.0 mg/kg/injection, schedule: Q01DX005 (ip), vehicle: water",97 % of control
same,T/C,"endpoint: mean survival time, dose: 100.0 mg/kg/injection, schedule: Q01DX005 (ip), vehicle: water",104 % of control
same,T/C,"endpoint: mean survival time, dose: 200.0 mg/kg/injection, schedule: Q01DX005 (ip), vehicle: water",121 % of control
O=C1CC(c2ccccc2)=NCCN1,T/C,"endpoint: mean survival time, dose: 100.0 mg/kg/injection, schedule: Q01DX001 (ip), vehicle: Klucel (hydroxypropylcellulose) (HPC)",100 % of control
same,T/C,"endpoint: mean survival time, dose: 200.0 mg/kg/injection, schedule: Q01DX001 (ip), vehicle: Klucel (hydroxypropylcellulose) (HPC)",102 % of control
same,T/C,"endpoint: mean survival time, dose: 400.0 mg/kg/injection, schedule: Q01DX001 (ip), vehicle: Klucel (hydroxypropylcellulose) (HPC)",103 % of control
O=c1[nH]cc(Cc2cccc(OCc3ccccc3)c2)c(=O)[nH]1,T/C,"endpoint: mean survival time, dose: 75.0 mg/kg/injection, schedule: Q01DX001 (ip), vehicle: saline with Tween-80",97 % of control
same,T/C,"endpoint: mean survival time, dose: 150.0 mg/kg/injection, schedule: Q01DX001 (ip), vehicle: saline with Tween-80",98 % of control
same,T/C,"endpoint: mean survival time, dose: 300.0 mg/kg/injection, schedule: Q01DX001 (ip), vehicle: saline with Tween-80",89 % of control
